Values quoted from earlier work in patent EP0404807B1, “DEPRENYL FOR SYSTEMIC TRANSDERMAL ADMINISTRATION” (SOMERSET PHARMACEUTICALS, INC., priority 1988, dated 1989).

Conditions: deprenyl alone, as stated in EP 0241809 A

C#CCN(C)C(C)Cc1ccccc1 (stereo not shown) [deprenyl, N-methyl-N-(1-phenyl-2-propyl)-2-propinylamine]
anti-Parkinsonism action: almost no anti-Parkinsonism action
